Assay results from patent US20100099561A1, “HETEROBICYCLIC ALKYLTHIO-BRIDGED ISOXAZOLINES” (E.I. DU PONT DE NEMOURS AND COMPANY, priority 2008, published 2010).

Legend:
Format in all cases: in vivo
[1] = system: rice (Oryza sativa); test: Test B flooded paddy test, rice; conditions: Flood, scale 0 to 100
Summary of the method: (§1)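 Rice, umbrella sedge, ducksalad and barnyardgrass at 2-leaf stage; pots flooded to 3 cm, compounds applied into paddy water, depth held throughout. Greenhouse 13 to 15 days, then visual rating vs untreated controls on 0–100 scale (0 no effect, 100 complete control); dash means no test result.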

[2] = system: johnsongrass (Sorghum halepense); test: Test B preemergence, johnsongrass; conditions: scale 0 to 100
Description: (§2) Seeds of plant species selected from blackgrass (Alopecurus myosuroides), downy bromegrass (Bromus tectorum), green foxtail (Setaria viridis), Italian ryegrass (Lolium multiflorum), wheat (Triticum aestivum), wild oat (Avena fatua), catchweed bedstraw (Galium aparine), bermudagrass (Cynodon dactylon), Surinam grass (Brachiaria decumbens), cocklebur (Xanthium strumarium), corn (Zea mays), large crabgrass (Digitaria sanguinalis), woolly cupgrass (Eriochloa villosa), giant foxtail (Setaria faberii), goosegrass (Eleusine indica), johnsongrass (Sorghum halepense), kochia (Kochia scoparia), lambsquarters (Chenopodium album), morningglory (Ipomoea coccinea), nightshade (eastern black nightshade, Solanum ptycanthum), yellow nutsedge (Cyperus esculentus), pigweed (Amaranthus retroflexus), ragweed (common ragweed, Ambrosia elatior), soybean (Glycine max), sunflower (common oilseed sunflower, Helianthus annuus), Russian thistle (Salsola kali), and velvetleaf (Abutilon theophrasti) were planted into a blend of loam soil and sand and treated preemergence with test compounds formulated in a non-phytotoxic solvent mixture which included a surfactant. Treated plants and controls were maintained in a greenhouse for 13 to 15 days, after which time all species were compared to controls and visually evaluated. Plant response ratings, summarized in Table B, are based on a scale of 0 to 100 where 0 is no effect and 100 is complete control. A dash (-) response means no test result.

[3] = system: lambsquarters (Chenopodium album); test: Test B preemergence, lambsquarters; conditions: scale 0 to 100
Description: as §2

[4] = system: velvetleaf (Abutilon theophrasti); test: Test A postemergence, velvetleaf; conditions: 0 to 100 scale (0 no effect, 100 complete control)
Summary of the method: (§3)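 Each compound, in a non-phytotoxic solvent mixture with surfactant, is applied to soil at planting and, concurrently, to young one- to two-leaf plants. After approximately ten greenhouse days, visual response is rated 0 (no effect) to 100 (complete control) against untreated controls.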

[5] = system: corn (Zea mays); test: Test A postemergence, corn; conditions: 0 to 100 scale (0 no effect, 100 complete control)
Summary of the method: as §3

[6] = system: pigweed (Amaranthus retroflexus); test: Test B preemergence, pigweed; conditions: scale 0 to 100
Description: as §2

[7] = system: wheat (Triticum aestivum); test: Test A postemergence, wheat; conditions: 0 to 100 scale (0 no effect, 100 complete control)
Summary of the method: as §3

[8] = system: morningglory (Ipomoea spp.); test: Test A postemergence, morningglory; conditions: 0 to 100 scale (0 no effect, 100 complete control)
Summary of the method: as §3

[9] = system: morningglory (Ipomoea coccinea); test: Test B preemergence, morningglory; conditions: scale 0 to 100
Description: as §2

[10] = system: ragweed (common ragweed, Ambrosia elatior); test: Test B preemergence, ragweed; conditions: scale 0 to 100
Description: as §2

[11] = system: wheat (Triticum aestivum); test: Test B preemergence, wheat; conditions: Preemergence, scale 0 to 100
Description: as §2

[12] = system: wild oat (Avena fatua); test: Test B preemergence, wild oat; conditions: scale 0 to 100
Description: as §2

[13] = system: yellow nutsedge (Cyperus esculentus); test: Test B preemergence, yellow nutsedge; conditions: scale 0 to 100
Description: as §2

[14] = system: blackgrass (Alopecurus myosuroides); test: Test B preemergence, blackgrass; conditions: scale 0 to 100
Description: as §2

[15] = system: ducksalad (Heteranthera limosa); test: Test B flooded paddy test, ducksalad; conditions: Flood, scale 0 to 100
Summary of the method: as §1

[16] = system: pigweed (Amaranthus retroflexus); test: Test A postemergence, pigweed; conditions: 0 to 100 scale (0 no effect, 100 complete control)
Summary of the method: as §3

[17] = system: goosegrass (Eleusine indica); test: Test B preemergence, goosegrass; conditions: scale 0 to 100
Description: as §2

[18] = system: giant foxtail (Setaria faberii); test: Test B preemergence, giant foxtail; conditions: scale 0 to 100
Description: as §2

[19] = system: sunflower (common oilseed sunflower, Helianthus annuus); test: Test B preemergence, sunflower; conditions: Preemergence, scale 0 to 100
Description: as §2

Compound: CC1(C)CC(S(=O)(=O)Cc2c(C(F)(F)C(F)(F)F)nc3n(c2=O)CCCC3)=NO1 [Compound 21]
- Plant response rating, Rice ([1]; 62 g ai/ha): 0
- Plant response rating, Rice ([1]; 250 g ai/ha): 0
- Plant response rating, Johnsongrass ([2]; 16 g ai/ha): 0
- Plant response rating, Johnsongrass ([2]; 31 g ai/ha): 30
- Plant response rating, Johnsongrass ([2]; 62 g ai/ha): 60
- Plant response rating, Johnsongrass ([2]; 125 g ai/ha): 98
- Plant response rating, Lambsquarters ([3]; 16 g ai/ha): 0
- Plant response rating, Lambsquarters ([3]; 31 g ai/ha): 0
- Plant response rating, Lambsquarters ([3]; 62 g ai/ha): 0
- Plant response rating, Lambsquarters ([3]; 125 g ai/ha): 98
- Plant response rating, Velvetleaf ([4]; 125 g ai/ha): 0
- Plant response rating, Velvetleaf ([4]; 500 g ai/ha): 10
- Plant response rating, Corn ([5]; 125 g ai/ha): 0
- Plant response rating, Corn ([5]; 500 g ai/ha): 0
- Plant response rating, Pigweed ([6]; 16 g ai/ha): 0
- Plant response rating, Pigweed ([6]; 31 g ai/ha): 0
- Plant response rating, Pigweed ([6]; 62 g ai/ha): 0
- Plant response rating, Pigweed ([6]; 125 g ai/ha): 98
- Plant response rating, Wheat ([7]; 125 g ai/ha): 0
- Plant response rating, Wheat ([7]; 500 g ai/ha): 20
- Plant response rating, Morningglory ([8]; 125 g ai/ha): 0
- Plant response rating, Morningglory ([8]; 500 g ai/ha): 40
- Plant response rating, Morningglory ([9]; 16 g ai/ha): 0
- Plant response rating, Morningglory ([9]; 31 g ai/ha): 10
- Plant response rating, Morningglory ([9]; 62 g ai/ha): 80
- Plant response rating, Morningglory ([9]; 125 g ai/ha): 100
- Plant response rating, Ragweed ([10]; 16 g ai/ha): 0
- Plant response rating, Ragweed ([10]; 31 g ai/ha): 0
- Plant response rating, Ragweed ([10]; 62 g ai/ha): 0
- Plant response rating, Ragweed ([10]; 125 g ai/ha): 10
- Plant response rating, Wheat ([11]; 16 g ai/ha): 0
- Plant response rating, Wheat ([11]; 31 g ai/ha): 0
- Plant response rating, Wheat ([11]; 62 g ai/ha): 0
- Plant response rating, Wheat ([11]; 125 g ai/ha): 0
- Plant response rating, Oat, Wild ([12]; 16 g ai/ha): 0
- Plant response rating, Oat, Wild ([12]; 31 g ai/ha): 30
- Plant response rating, Oat, Wild ([12]; 62 g ai/ha): 30
- Plant response rating, Oat, Wild ([12]; 125 g ai/ha): 40
- Plant response rating, Nutsedge, Yellow ([13]; 16 g ai/ha): 0
- Plant response rating, Nutsedge, Yellow ([13]; 31 g ai/ha): 20
- Plant response rating, Nutsedge, Yellow ([13]; 62 g ai/ha): 60
- Plant response rating, Nutsedge, Yellow ([13]; 125 g ai/ha): 90
- Plant response rating, Blackgrass ([14]; 16 g ai/ha): 40
- Plant response rating, Blackgrass ([14]; 31 g ai/ha): 40
- Plant response rating, Blackgrass ([14]; 62 g ai/ha): 50
- Plant response rating, Blackgrass ([14]; 125 g ai/ha): 98
- Plant response rating, Ducksalad ([15]; 62 g ai/ha): 0
- Plant response rating, Ducksalad ([15]; 250 g ai/ha): 0
- Plant response rating, Pigweed ([16]; 125 g ai/ha): 0
- Plant response rating, Pigweed ([16]; 500 g ai/ha): 10
- Plant response rating, Goosegrass ([17]; 16 g ai/ha): 50
- Plant response rating, Goosegrass ([17]; 31 g ai/ha): 98
- Plant response rating, Goosegrass ([17]; 62 g ai/ha): 100
- Plant response rating, Goosegrass ([17]; 125 g ai/ha): 100
- Plant response rating, Foxtail, Giant ([18]; 16 g ai/ha): 0
- Plant response rating, Foxtail, Giant ([18]; 31 g ai/ha): 60
- Plant response rating, Foxtail, Giant ([18]; 62 g ai/ha): 80
- Plant response rating, Foxtail, Giant ([18]; 125 g ai/ha): 85
- Plant response rating, Sunflower ([19]; 16 g ai/ha): 0
- Plant response rating, Sunflower ([19]; 31 g ai/ha): 0
- Plant response rating, Sunflower ([19]; 62 g ai/ha): 0
- Plant response rating, Sunflower ([19]; 125 g ai/ha): 10
